This is an account of results in US11925629B2, “Heterocyclic inhibitors of ERK1 and ERK2 and their use in the treatment of cancer” (Asana Biosciences, LLC, priority 2015, dated 2024).

What all share (assay type): cell-based, human
For assay [1], the system named is phosphorylation of RSK1(S380) (the downstream target of ERK1/2). Nature of the assay: Phospho-RSK1(S380) ELISA assay in HT-29 cells. The settings on record: Homo sapiens, HT-29, HT29 cells, read-out: Mechanistic Cell Assay RSK1 Phos HT29 IC50. Summed up: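 IC50 values derive from a variable-slope sigmoidal fit of sandwich-ELISA signal (450 nm) for RSK1 Ser380 phosphorylation. The cells were B-RafV600E HT-29 colorectal line, exposed to serially diluted compound for 2 h after overnight seeding, then lysed at 4° C.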
(In general: ELISA stands for enzyme-linked immunosorbent assay.)

Assay [2] deals with HCT116 (colorectal carcinoma, K Ras G13D) cells. Nature of the assay: Cell proliferation (Alamar Blue) assay, HCT116. To be noted: Homo sapiens, HCT-116, HCT116 cells. The gist of the method: (§1)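 After overnight plating (16-24 h), cells were treated for 72 h with compound dilutions spanning roughly 0.0005 to 10 uM. Proliferation was measured by Alamar Blue fluorescence and IC50 values derived from variable-slope dose-response curves.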

In assay [3] the test system is HT-29 (colorectal carcinoma, B-RafV600E) cells. In words: Cell proliferation (Alamar Blue) assay, HT-29. The settings on record: Homo sapiens, HT-29, HT29 cells. Summed up: as §1

Where two headings read alike, the source gives them in different places. A value given as a limit tells only on which side of the number the result lay.

Regarding `COc1c(F)cccc1Nc1ncc(C)c(-n2ccc(C(=O)NC(CO)c3cccc(Cl)c3)c2)n1` (stereo not drawn) [Example 143, N-(1-(3-chloro-phenyl)-2-hydroxy-ethyl)-1-(2-((3-fluoro-2-methoxy-phenyl)amino)-5-methyl-pyrimidin-4-yl)-1H-pyrrole-3-carboxamide], the results for the 50% inhibitory concentration (IC50) in assay [1] (phospho-RSK1(S380)), in assay [2] and in assay [3] were 0.25 to 0.5 µM, 0.25 to 0.5 µM and 0.5 to 2.5 µM, respectively.

Regarding `Cc1cnc(Nc2ccc3c(c2)OC(F)(F)O3)nc1-n1cnc(C(=O)NCc2cccc(Cl)c2CO)c1` [Example 332, N-(3-chloro-2-(hydroxymethyl)benzyl)-1-(2-((2,2-difluorobenzo[d][1,3]dioxol-5-yl)amino)-5-methylpyrimidin-4-yl)-1H-imidazole-4-carboxamide], the IC50 was at most 0.1 µM in assay [1], 0.25 to 0.5 µM in assay [2] and 0.5 to 2.5 µM in assay [3].

Turning to `Cc1cnc(Nc2ccc3c(c2)CCO3)nc1-n1ccc(C(=O)NC(CO)c2cccc(Cl)c2)c1` (stereo not drawn) [Example 137, N-(1-(3-chloro-phenyl)-2-hydroxy-ethyl)-1-(2-((2,3-dihydro-benzofuran-5-yl)-mino)-5-methyl-pyrimidin-4-yl)-1H-pyrrole-3-carboxamide], the figures for the IC50 in assay [1] (phospho-RSK1(S380)), in assay [2] and in assay [3] were 0.1 to 0.25 µM, 0.1 to 0.25 µM and 0.25 to 0.5 µM, respectively.

With `Cc1cnc(Nc2ccc3c(c2)CC(=O)N3)nc1-n1ccc(C(=O)NC(CO)c2cccc(Cl)c2)c1` (stereo not drawn) [Example 198, N-(1-(3-chlorophenyl)-2-hydroxyethyl)-1-(5-methyl-2-((2-oxoindolin-5-yl)amino)pyrimidin-4-yl)-1H-pyrrole-3-carboxamide], the IC50 in assay [1] (phospho-RSK1(S380)), in assay [2] and in assay [3] was 0.5 to 2.5 µM throughout.

As for `O=C(NC(CO)c1cccc(Cl)c1)c1ccn(-c2ccnc(Nc3ccc4c(c3)OC(F)(F)O4)n2)c1` (stereo not drawn) [Example 176, N-(1-(3-chlorophenyl)-2-hydroxyethyl)-1-(2-((2,2-difluorobenzo[d][1,3]dioxol-5-yl)amino)pyrimidin-4-yl)-1H-pyrrole-3-carboxamide], the IC50 was 0.5 to 2.5 µM in assay [1] (phospho-RSK1(S380)), above 2.5 µM in assay [2] and 0.5 to 2.5 µM in assay [3].

Regarding `COc1cc(F)ccc1Nc1ncc(C)c(-n2ccc(C(=O)NC(CO)c3cccc(Cl)c3)c2)n1` (stereo not drawn) [Example 142, N-(1-(3-chloro-phenyl)-2-hydroxy-ethyl)-1-(2-((4-fluoro-2-methoxy-phenyl)amino)-5-methyl-pyrimidin-4-yl)-1H-pyrrole-3-carboxamide], the IC50 in assay [1] (phospho-RSK1(S380)) lay within 0.25 to 0.5 µM; in assay [2], 0.5 to 2.5 µM; in assay [3] it was 0.5 to 2.5 µM.

As to `Cc1cnc(NC(CO)CO)nc1-n1ccc(C(=O)NC(CO)c2ccccc2)c1` (stereo not drawn) [Example 147, 1-(2-((1,3-dihydroxy-propan-2-yl)amino)-5-methyl-pyrimidin-4-yl)-N-(2-hydroxy-1-phenylethyl)-1H-pyrrole-3-carboxamide], the half-maximal inhibitory concentration (IC50) in assay [1] (phospho-RSK1(S380)), in assay [2] and in assay [3] was above 2.5 µM each time.

As for `Cc1cnc(NC2CCOCC2)nc1-n1cnc(C(=O)NC(CO)c2cccc(Cl)c2)c1` (stereo not drawn) [Compound 201, N-(1-(3-chlorophenyl)-2-hydroxyethyl)-1-(5-methyl-2-((tetrahydro-2H-pyran-4-yl)amino)pyrimidin-4-yl)-1H-imidazole-4-carboxamide], the IC50 in assay [1] (phospho-RSK1(S380)) was 0.1 to 0.25 µM; in assay [2], 0.5 to 2.5 µM; in assay [3], at most 0.1 µM.

For `CC(=O)OCc1c(Cl)cccc1CNC(=O)c1cn(-c2nc(N[C@H]3CCOC3)ncc2C)cn1` [Example 342, (S)-2-chloro-6-((1-(5-methyl-2-((tetrahydrofuran-3-yl)amino)pyrimidin-4-yl)-1H-imidazole-4-carboxamido)-methyl)benzyl acetate], the IC50 is 0.1 to 0.25 µM in assay [1], at most 0.1 µM in assay [2] and at most 0.1 µM in assay [3].

For the compound `CC[C@H](CO)Nc1cc(-n2cnc(C(=O)NC(CO)c3cccc(Cl)c3)c2)c(Cl)cn1` (stereo partly drawn) [Example 168, 1-(5-chloro-2-(((R)-1-hydroxybutan-2-yl)amino)pyridin-4-yl)-N-(1-(3-chlorophenyl)-2-hydroxyethyl)-1H-imidazole-4-carboxamide], the half-inhibitory concentration (IC50) in assay [1] (phospho-RSK1(S380)) was 0.5 to 2.5 µM; in assay [2], above 2.5 µM; in assay [3], above 2.5 µM.

On to `Cc1cnc(NC2CCCCC2)nc1-n1ccc(C(=O)NC(CO)c2cccc(Cl)c2)c1` (stereo not drawn) [Example 195, N-(1-(3-chlorophenyl)-2-hydroxyethyl)-1-(2-(cyclohexylamino)-5-methylpyrimidin-4-yl)-1H-pyrrole-3-carboxamide], for which the IC50 was in the range of 0.1 to 0.25 µM in assay [1] (phospho-RSK1(S380)), 0.5 to 2.5 µM in assay [2] and 0.1 to 0.25 µM in assay [3].

In the case of `Cc1cnc(Nc2ccc3c(c2)OCO3)nc1-n1ccc(C(=O)N[C@H](CO)c2ccc(F)c(Cl)c2)c1` [Example 87, (S)-1-(2-(benzo[d][1,3]dioxol-5-ylamino)-5-methyl-pyrimidin-4-yl)-N-(1-(3-chloro-4-fluorophenyl)-2-hydroxy-ethyl)-1H-pyrrole-3-carboxamide], the IC50 in assay [1] (phospho-RSK1(S380)) fell in the range of 0.1 to 0.25 µM; in assay [2], 0.5 to 2.5 µM; in assay [3], 0.25 to 0.5 µM.

As for `O=C(N[C@H](CO)c1cccc(Cl)c1)c1cn(-c2ccnc(NC3CC3)c2)cn1` [Example 116, (S)-N-(1-(3-chlorophenyl)-2-hydroxy-ethyl)-1-(2-(cyclopropyl-amino)pyridin-4-yl)-1H-imidazole-4-carboxamide], the IC50 in assay [1] (phospho-RSK1(S380)) was 0.5 to 2.5 µM; in assay [2] it was above 2.5 µM; in assay [3] it was above 2.5 µM.

With `CNC(=O)c1ccc(Nc2ncc(C)c(-n3ccc(C(=O)NC(CO)c4cccc(Cl)c4)c3)n2)cc1` (stereo not drawn) [Example 196, N-(1-(3-chlorophenyl)-2-hydroxyethyl)-1-(5-methyl-2-((4-(methylcarbamoyl)phenyl)amino)pyrimidin-4-yl)-1H-pyrrole-3-carboxamide], the IC50 in assay [1] (phospho-RSK1(S380)), in assay [2] and in assay [3] was 0.5 to 2.5 µM each time.

Take `O=C(N[C@H](CO)c1cccc(Cl)c1)c1cn(-c2ccnc(NC3CCOC3)c2)cn1` (stereo partly drawn) [Example 170, N-((S)-1-(3-chlorophenyl)-2-hydroxyethyl)-1-(2-((tetrahydrofuran-3-yl)amino)pyridin-4-yl)-1H-imidazole-4-carboxamide]: the concentration for half-maximal inhibition (IC50) is above 2.5 µM in assay [1] (phospho-RSK1(S380)), above 2.5 µM in assay [2] and 0.5 to 2.5 µM in assay [3].

On to `CC[C@@H](CO)Nc1ncc(C)c(-n2ccc(C(=O)N[C@H](CO)c3ccc(F)c(Cl)c3)c2)n1` [Example 133, N-((S)-1-(3-chloro-4-fluorophenyl)-2-hydroxy-ethyl)-1-(2-(((S)-1-hydroxy-butan-2-yl)amino)-5-methyl-pyrimidin-4-yl)-1H-pyrrole-3-carboxamide], for which the IC50 in assay [1] (phospho-RSK1(S380)) is 0.25 to 0.5 µM; in assay [2] it was 0.5 to 2.5 µM; in assay [3], 0.25 to 0.5 µM.

In the case of `Cc1cnc(Nc2ccc(F)c(N3CCNCC3)c2)nc1-n1ccc(C(=O)NC(CO)c2cccc(Cl)c2)c1` (stereo not drawn) [Example 213, N-(1-(3-chlorophenyl)-2-hydroxyethyl)-1-(2-((4-fluoro-3-(piperazin-1-yl)phenyl)amino)-5-methylpyrimidin-4-yl)-1H-pyrrole-3-carboxamide], the half-inhibitory concentration (IC50) in assay [1] (phospho-RSK1(S380)) was 0.25 to 0.5 µM; in assay [2], 0.25 to 0.5 µM; in assay [3], 0.1 to 0.25 µM.

Regarding `Cc1cnc(Nc2ccnn2C)nc1-n1cnc(C(=O)N[C@H](CN)c2cccc(Cl)c2)c1` [Example 280, (S)-N-(2-amino-1-(3-chlorophenyl)ethyl)-1-(5-methyl-2-((1-methyl-1H-pyrazol-5-yl)amino)pyrimidin-4-yl)-1H-imidazole-4-carboxamide], the IC50 in assay [1] (phospho-RSK1(S380)), in assay [2] and in assay [3] was at most 0.1 µM each time.

As for `Cc1cnc(Nc2ccc3c(c2)OCC3)nc1-n1ccc(C(=O)NC(CO)c2ccccc2)c1` (stereo not drawn) [Example 185, 1-(2-((2,3-dihydrobenzofuran-6-yl)amino)-5-methylpyrimidin-4-yl)-N-(2-hydroxy-1-phenylethyl)-1H-pyrrole-3-carboxamide], the 50% inhibitory concentration (IC50) in assay [1] (phospho-RSK1(S380)), in assay [2] and in assay [3] was 0.25 to 0.5 µM in each case.

For `Cc1cnc(NCc2cccnc2)cc1-n1ccc(C(=O)NC(CO)c2ccc(F)c(Cl)c2)c1` (stereo not drawn) [Example 193, N-(1-(3-chloro-4-fluorophenyl)-2-hydroxyethyl)-1-(5-methyl-2-((pyridin-3-ylmethyl)amino)pyridin-4-yl)-1H-pyrrole-3-carboxamide], the IC50 in assay [1] (phospho-RSK1(S380)) is 0.5 to 2.5 µM; in assay [2], above 2.5 µM; in assay [3] it was above 2.5 µM.

In the case of `CCNc1ncc(C)c(-n2ccc(C(=O)NC(CO)c3ccccc3)c2)n1` (stereo not drawn) [Example 130, 1-(2-(ethyl-amino)-5-methyl-pyrimidin-4-yl)-N-(2-hydroxy-1-phenylethyl)-1H-pyrrole-3-carboxamide], the results for the IC50 in assay [1] (phospho-RSK1(S380)), in assay [2] and in assay [3] were 0.5 to 2.5 µM, above 2.5 µM and above 2.5 µM, respectively.

Regarding `Cc1cnc(N[C@H]2CCOC2)nc1-n1ccc(C(=O)N(C)C(CO)c2cccc(Cl)c2)c1` (stereo partly drawn) [Example 212, N-(1-(3-chlorophenyl)-2-hydroxyethyl)-N-methyl-1-(5-methyl-2-(((S)-tetrahydrofuran-3-yl)amino)pyrimidin-4-yl)-1H-pyrrole-3-carboxamide], the IC50 is 0.5 to 2.5 µM in assay [1] (phospho-RSK1(S380)), above 2.5 µM in assay [2] and 0.5 to 2.5 µM in assay [3].

`O=C(NC(CO)c1cccc(Cl)c1)c1cn(-c2ccnc(Nc3ccccc3)c2)cn1` (stereo not drawn) [Cmpd 77, N-(1-(3-chloro-phenyl)-2-hydroxy-ethyl)-1-(2-(phenyl-amino)pyridin-4-yl)-1H-imidazole-4-carboxamide]: the figures for the IC50 in assay [1] (phospho-RSK1(S380)), in assay [2] and in assay [3] were 0.1 to 0.25 µM, above 2.5 µM and 0.5 to 2.5 µM, respectively.

A word on the IC50: it is the concentration that inhibits the measured activity by half.
